Residues, ends and D or L forms follow the SMILES beside them.
Experiments:
[1] = target: T1, Aβo-VEGF interaction (recombinant human VEGF165) (Homo sapiens, UniProt P05067); assay: Competitive ELISA of Aβo binding to immobilized VEGF; conditions: for inhibition of the binding of Aβo to VEGF: biotinylated Aβ42 oligomers 2.1 μM, peptide 10 nM to 100 μM
T1 construct: purchased Bachem
Method: Competitive ELISA experiments were performed to analyze the ability of the BP to impede AB42 oligomers binding to VEGF. For these assays, recombinant human VEGF165 (500 ng/ml-1) was immobilized in the 96-well microplate as the capture antigen and incubated overnight at 4° C. The following day, biotinylated AB42 oligomers were precubated at 2.1 μM for 1 h at RT with various concentrations of the CP or BP ranging from 10 nM to 100 μM. After 3 rinces with PBS 0.05% Tween 20, the mix was added in triplicate and incubated for 2 h at RT. Next, a washing step was performed followed by an incubation with the HRP-conjugated streptavidin for 20 min, additional rinces and finally the substrate solution containing TMB and H2O2. Absorbance was measured using a TECAN microplate reader.

[2] = target: T2, Aβ42 oligomers (Aβo) (Homo sapiens, UniProt P05067); assay: Indirect ELISA, binding of coated peptide to biotinylated Aβ42 oligomers; conditions: peptide coated at 5 μM
T2 construct: purchased Bachem; host or cells: chemical synthesis
T2 sequence (P05067 672-713 limits assumed): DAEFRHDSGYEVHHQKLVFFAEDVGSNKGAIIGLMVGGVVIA
Method: (§1) The binding of the CP or BP to synthetic biotinylated Aβ42 oligomers (Aβo) or AB40 monomers (Aβm) was determined by indirect ELISA in which the CP or BP were used as the capture antigens and the biotin tag of the biotinylated Aβ peptides for the detection. 96-well clear polystyrene microplate (BioTechne DY990) were coated overnight at 4° C. with 5 μM of the CP or BP in PBS, pH 7.4. After immobilization, the plate was washed three times with PBS 0.05% Tween 20 and various concentrations of biotinylated Aβ peptides were added in triplicate from 0.1 μg.mL-1 to 10 μg.mL-1 (21 nM to 2.1 μM for Aβo (42), 22 nM to 2.2 μM for Aβm (40) and incubated for 2 h at RT. After additional washes with PBS 0.05% Tween 20, HRP-conjugated streptavidin (1/40) was added for 20 min at RT, followed by a washing step and an incubation in substrate solution containing 3,3′,5,5′-Tetramethylbenzidine (TMB) and H2O2. The reaction was stopped by H2SO4. Absorbance was successively measured at 450 and 540 nm with a TECAN microplate reader and optical density values at 540 nm were subtracted from the ones at 450 nm to correct for optical imperfections of the plate. Unspecific Aβ binding to the microplate was determined using non-coated wells.

[3] = target: T3, monomeric Aβ42 (Homo sapiens, UniProt P05067); assay: Thioflavin-T assay of Aβ42 aggregation kinetics; assay type: biochemical; conditions: for inhibition of fibril formation (normalized ThT fluorescence): 15 μM monomeric Aβ, equimolar peptide, 24 hours; for ThT fluorescence of peptide alone: highest concentration of peptide alone, no Aβ
T3 construct: purchased Bachem; host or cells: chemical synthesis
T3 sequence (P05067 672-713 limits assumed): as above
Method: Thioflavin-T (ThT) assays were performed in black polystyrene 384-well plates with transparent bottom using a Tecan microplate reader with a set of excitation/emission wavelengths of 450/490 nm. Monomeric Aβ42 was prepared as described above and blocking or control peptides (BP ou CP) were used at indicted concentrations, ranging from 0.5 to 15 μM. The final concentration of ThT and monomeric AB42 was used at 15 μM in PBS buffer (pH 7.4), with a total reaction volume per well of 110 μL. The plate was sealed with a transparent plastic film and incubated at 37° C. prior to fluorescence measurement. ThT fluorescence intensity was monitored every 5 min over 24 h at 37° C. without agitation. Three replicates per condition were measured.

[4] = target: T4, AB40 monomers (Aβm) (Homo sapiens, UniProt P05067); assay: Indirect ELISA, binding of coated peptide to biotinylated Aβ40 monomers
T4 construct: synthetic biotinylated Aβ42 oligomers (Aβo) or AB40 monomers (Aβm); purchased Bachem; host or cells: chemical synthesis
T4 sequence (P05067 672-711 limits assumed): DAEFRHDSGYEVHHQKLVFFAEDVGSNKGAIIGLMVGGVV
Method: as §1

[5] = target: T5, biotinylated Aβ42 oligomers (Aβo (42)) (Homo sapiens, UniProt P05067); assay: Peptide array probed with biotinylated Aβ42 oligomers; assay type: binding; conditions: biotinylated Aβo 0.1 to 10 μg.mL-1, BP result at the lowest concentration (0.1 μg/ml-1)
T5 construct: purchased Bachem; host or cells: chemical synthesis
T5 sequence (P05067 672-713 limits assumed): as the sequence (P05067 672-713 limits assumed) above
Method: In the context of the invention, cellulose-bound peptide arrays encompassing the heparin binding domain and the C-terminal human VEGF sequence (UniProtKB #P15692) were synthesized by Proteomic Solutions. Overlapping 15-mer peptides were shifted by 3 aa and two copies of the same array were spotted on the slide for quality control and reproducibility. Arrays were blocked for 2 h in Tris buffered saline, 1% Tween 20, 5% BSA to prevent unspecific binding, and were subsequently probed for 15 h at 4° C. with biotinylated AB42 oligomers (Aβo (42)) using concentrations varying from 0.1 to 10 μg.mL-1 or vehicle used as a control. After washing in TBS 1% Tween 20, peptide arrays were incubated with HRP-conjugated Streptavidin for 2 h at RT. Aβo interaction was detected using SuperSignal West Pico PLUS chemiluminescent substrate and non-specific Aβ binding was determined using the control peptide (CP) spotted on the peptide array. […]
Cellulose-bound peptide arrays encompassing the heparin binding domain and the C-terminal human VEGF sequence (UniProtKB #P15692) were synthesized by Proteomic Solutions. […] Aβo interaction was detected using SuperSignal West Pico PLUS chemiluminescent substrate and non-specific Aβ binding was determined using the control peptide (CP) spotted on the peptide array. […]

[6] = target: T6, soluble Aβ species (monomers, LMW and HMW Aβo) (Homo sapiens, UniProt P05067); assay: Western blotting of soluble Aβ species (6E10 antibody); assay type: biochemical
T6 construct: purchased Bachem; host or cells: chemical synthesis
T6 sequence (P05067 672-713 limits assumed): as above
Method: Aβ preparations (1 μg) were subjected to immunoblotting analysis and separated on 4-12% gradient SDS-PAGE gels, prior to being transferred on nitrocellulose membranes. After a 45 minutes blocking step in Tris-buffered saline, 0.1% Tween, pH 7.6, 5% milk, membranes were immunoblotted overnight at 4° C. with the 6E10 anti-Ab antibody diluted in Tris-buffered saline, 0.1% Tween, pH 7.6, with 2% milk. Horseradish peroxidase (HRP)-conjugated secondary anti-mouse antibody was next applied for 1 h30 at room temperature. Proteins were visualized with an ECL detection system and band intensities quantified using a densitometric analysis with Image J software.

[7] = Aβ aggregated with peptide for 24 hours, compared to the two other conditions

T1 sequence (P05067 672-713 limits assumed): as above

Row | Molecule | inhibition of the binding of Aβo to VEGF [1] | binding to Aβo ([2]; ELISA) | inhibition of fibril formation (normalized ThT fluorescence) [3] | ThT fluorescence of peptide alone [3] | binding to Aβm ([4]; ELISA, peptide coated at 5 μM) | labeling of peptide spot by biotinylated Aβo [5] | Ki [1] [µM] | fraction of LMW Aβo ([6]; Aβ aggregated with peptide for 2 hours, compared to Aβ alone and Aβ and CP) | amount of HMW Aβo ([6]; Aβ aggregated with peptide for 2 hours, compared to the Aβ alone condition) | LMW Aβo and Aβ monomers [6, 7] | fraction of HMW Aβo [6, 7] | Kd ([2]; ELISA titration binding curves) [µM] | steepness of the exponential phase corresponding to Aβ42 nucleation ([3]; peptide 0.5 to 15 μM, 15 μM Aβ42) | Kd [4] [µM]
1 | NDYKDDDDKGAAA [CP, reference compound] | did not inhibit | fails to bind | no significant effect | does not induce any increase in ThT fluorescence | fails to bind | no labelling | – | – | – | – | – | – | – | –
2 | CC(C)[C@H](NC(=O)[C@H](Cc1ccc(O)cc1)NC(=O)[C@@H](NC(=O)[C@H](CO)NC(=O)[C@H](Cc1c[nH]c2ccccc12)NC(=O)[C@H](CO)NC(=O)[C@H](CCCCN)NC(=O)[C@H](Cc1ccc(O)cc1)NC(=O)[C@H](CCCNC(=N)N)NC(=O)[C@H](CO)NC(=O)[C@H](CCCCN)NC(=O)[C@H](CCCCN)NC(=O)[C@H](CCCNC(=N)N)NC(=O)[C@@H](N)CCCCN)C(C)C)C(=O)NCC(=O)O [BP, KRKKSRYKSWSVYVG] (H-KRKKSRYKSWSVYVG-OH; N-terminus and C-terminus assumed) | clear dose-dependent reduction | – | 95% | does not induce any increase in ThT fluorescence | – | clear staining | 0.34 | significantly increased | significant decrease | increase | significant decrease | 0.012 | decreases with increasing concentrations | 19
